The structures appear in SMILES notation. In brackets after ≈: the same amount, converted by molar mass.

Holding throughout (type): cell-based
For assay [1], the system named is PV-1 (poliovirus). The assay can be described thus: microbe, parasite or virus in culture. The settings on record: Enterovirus C; 72 hours at 37° C.; read-out: IC50, PV-1 (50 percent inhibition of plaque formation).
The subject of assay [2] is CS-B3 (Coxsackie virus). The experiment in a line: organism not typed. Conditions: 72 hours at 37° C.; read-out: IC50, CS-B3 (50 percent inhibition of plaque formation).
Assay [3] has as its system RhV-2 (Rhinovirus). The experiment in a line: microbe, parasite or virus in culture. The settings on record: Enterovirus; 120 hours at 32° C.; read-out: IC50, RhV-2 (50 percent inhibition of plaque formation).
Assay [4] deals with RhV-14 (Rhinovirus). The assay can be described thus: microbe, parasite or virus in culture. The settings on record: 120 hours at 32° C.; for IC50: Enterovirus, 120 h, read-out: IC50, RhV-14 (50 percent inhibition of plaque formation).
The subject of assay [5] is RhV-16 (Rhinovirus). The assay can be described thus: microbe, parasite or virus in culture. The settings on record: Enterovirus; 120 hours at 32° C.; read-out: IC50, RhV-16 (50 percent inhibition of plaque formation).
In assay [6] the test system is RhV-1 (Rhinovirus). The experiment in a line: microbe, parasite or virus in culture. The settings on record: Enterovirus; 120 hours at 32° C.; read-out: IC50, RhV-1 (50 percent inhibition of plaque formation).
Assay [7] has as its system CS-A21C (Coxsackie virus). The assay can be described thus: organism not typed. Conditions: 72 hours at 37° C.; read-out: IC50, CS-A21C (50 percent inhibition of plaque formation).

Broadly, the IC50 is the concentration that gives 50% inhibition. In the case of `C#CC=C(c1ccc([S+](C)[O-])cc1)c1ccc2nc(N)n(S(=O)(=O)C(C)C)c2c1` (stereo not drawn) [30 (trans)], in assay [1], the IC50 came to 0.07 µg/mL (≈ 0.164 µM).
On to `C#C/C=C(/c1ccccc1)c1ccc2nc(N)n(S(=O)(=O)C(C)C)c2c1` [2C (cis)], for which the half-inhibitory concentration (IC50) in assay [2] was found to be 0.055 µg/mL (≈ 0.15 µM); in assay [1] it was 0.19 µg/mL (≈ 0.52 µM).
For `C#C/C=C(\c1ccc(OC)cc1)c1ccc2nc(N)n(S(=O)(=O)C(C)C)c2c1` [3 (trans)], the IC50 in assay [3] was 0.041 µg/mL (≈ 0.104 µM); in assay [4] it was 0.059 µg/mL (≈ 0.149 µM); in assay [5] it was 0.029 µg/mL (≈ 0.0733 µM); in assay [1], 0.21 µg/mL (≈ 0.531 µM); in assay [6], 0.03 µg/mL (≈ 0.0759 µM).
Take `C#CC=C(c1ccc2nc(N)n(S(=O)(=O)C(C)C)c2c1)c1ccccc1F` [21 (cis)]: the “IC50, RhV-14 (50 percent inhibition of plaque formation)” value in assay [4] amounted to 0.478 µg/mL.
Consider `C#C/C=C(\c1ccc(C)c(C)c1)c1ccc2nc(N)n(S(=O)(=O)C(C)C)c2c1` [8 (trans)], for which the concentration for half-maximal inhibition (IC50) in assay [1] came out at 0.1 µg/mL (≈ 0.254 µM).
In the case of `C#CC=C(c1ccc(F)c(F)c1)c1ccc2nc(N)n(S(=O)(=O)C(C)C)c2c1` [20 (trans)], the IC50 in assay [4] was 0.155 µg/mL (≈ 0.386 µM).
Consider `C#C/C=C(/c1ccc(C(C)C)cc1)c1ccc2nc(N)n(S(=O)(=O)C(C)C)c2c1` [11 (cis)], for which, in assay [1], the IC50 stood at 2.74 µg/mL (≈ 6.72 µM).
`C#C/C=C(\c1ccccc1)c1cc2c(cc1F)nc(N)n2S(=O)(=O)C(C)C` [5 (trans)]: in assay [4], the IC50 worked out at 1.9 µg/mL (≈ 4.96 µM).
Regarding `C#C/C=C(/c1ccccc1)c1ccc2ncn(S(=O)(=O)C(C)C)c2c1` [12 (cis)], in assay [1], the half-maximal inhibitory concentration (IC50) was 50 µg/mL (≈ 143 µM).
`C#CC=C(c1cccc(F)c1)c1ccc2nc(N)n(S(=O)(=O)N(C)C)c2c1` [16B (trans)]: the IC50 in assay [4] amounted to 0.038 µg/mL (≈ 0.0988 µM).
For the compound `C#C/C=C(\c1ccc(C(F)(F)F)cc1)c1ccc2nc(N)n(S(=O)(=O)C(C)C)c2c1` [13 (trans)], the concentration for half-maximal inhibition (IC50) in assay [1] was 0.12 µg/mL (≈ 0.277 µM).
`C#C/C=C(\c1ccc(C(C)C)cc1)c1ccc2nc(N)n(S(=O)(=O)C(C)C)c2c1` [11 (trans)]: in assay [1], the half-maximal inhibitory concentration (IC50) is 0.088 µg/mL (≈ 0.216 µM).
As for `CC(C)S(=O)(=O)n1c(N)nc2ccc(/C(=C/C#C[Si](C)(C)C)c3ccc(F)cc3)cc21` [1A (trans)], the 50% inhibitory concentration (IC50) in assay [4] was 10.9 µg/mL (≈ 23.9 µM).
With `C#C/C=C(\c1ccccc1)c1ccc2nc(N)n(S(=O)(=O)C(C)C)c2c1` [2C (trans)], the IC50 turned out to be 0.065 µg/mL (≈ 0.178 µM) in assay [3]; 0.081 µg/mL (≈ 0.222 µM) in assay [4]; 0.039 µg/mL (≈ 0.107 µM) in assay [5]; 0.035 µg/mL (≈ 0.0958 µM) in assay [1]; 0.32 µg/mL (≈ 0.876 µM) in assay [7]; 0.033 µg/mL (≈ 0.0903 µM) in assay [6].
`C#CC=C(c1ccc(OC(F)(F)F)cc1)c1ccc2nc(N)n(S(=O)(=O)C(C)C)c2c1` [28 (trans)]: in assay [3], the concentration for half-maximal inhibition (IC50) amounted to 0.535 µg/mL (≈ 1.19 µM).
As to `C#CC=C(c1ccc2nc(N)n(S(=O)(=O)C(C)C)c2c1)c1cc(F)ccc1F` [26 (trans)], the half-maximal inhibitory concentration (IC50) worked out at 0.079 µg/mL (≈ 0.197 µM) in assay [3], 0.115 µg/mL (≈ 0.286 µM) in assay [4], 0.099 µg/mL (≈ 0.247 µM) in assay [5] and 0.096 µg/mL (≈ 0.239 µM) in assay [6].
As to `C#CC=C(c1cc(F)cc(F)c1)c1ccc2nc(N)n(S(=O)(=O)C(C)C)c2c1` [29 (trans)], the IC50 in assay [3] was found to be 0.176 µg/mL (≈ 0.438 µM); in assay [4], 0.236 µg/mL (≈ 0.588 µM); in assay [5], 0.261 µg/mL (≈ 0.65 µM); in assay [6], 0.124 µg/mL (≈ 0.309 µM).
Take `CC#CC=C(c1cccc(F)c1)c1ccc2nc(N)n(S(=O)(=O)C(C)C)c2c1` [33D (trans)]: the IC50 in assay [4] amounted to 0.19 µg/mL (≈ 0.478 µM).
For the compound `C#CC=C(c1ccc(OC)c(F)c1)c1ccc2nc(N)n(S(=O)(=O)C(C)C)c2c1` [25 (trans)], the values for the IC50 in assay [3], in assay [5] and in assay [6] were 0.054 µg/mL (≈ 0.131 µM), 0.06 µg/mL (≈ 0.145 µM) and 0.049 µg/mL (≈ 0.119 µM), respectively. In assay [4], the “IC50, RhV-14 (50 percent inhibition of plaque formation)” value is 0.065 µg/mL.
With `C#CC=C(c1ccc(N(C)C)cc1)c1ccc2nc(N)n(S(=O)(=O)C(C)C)c2c1` [15B (trans)], the half-inhibitory concentration (IC50) in assay [4] came out at 0.1 µg/mL (≈ 0.245 µM).
As to `C#CC=C(c1cccc(F)c1)c1ccc2nc(N)n(S(=O)(=O)C(C)C)c2c1` [24 (trans)], the IC50 came out at 0.069 µg/mL (≈ 0.18 µM) in assay [3], 0.088 µg/mL (≈ 0.229 µM) in assay [4], 0.057 µg/mL (≈ 0.149 µM) in assay [5] and 0.027 µg/mL (≈ 0.0704 µM) in assay [6].
In the case of `C#CC=C(c1cccc(F)c1)c1ccc2nc(N)n(S(=O)(=O)N(C)C)c2c1` [17 (trans)], in assay [4], the “IC50, RhV-14 (50 percent inhibition of plaque formation)” value amounted to 0.071 µg/mL.
On to `C#C/C=C(\c1ccc(F)cc1)c1ccc2nc(N)n(S(=O)(=O)C(C)C)c2c1` [1B (trans)], for which the IC50 in assay [3] worked out at 0.091 µg/mL (≈ 0.237 µM); in assay [4], 0.101 µg/mL (≈ 0.263 µM); in assay [5] it was 0.032 µg/mL (≈ 0.0835 µM); in assay [6], 0.078 µg/mL (≈ 0.203 µM).
In the case of `C#CC=C(c1ccccc1)c1ccc2nc(N)n(S(=O)(=O)C(C)C)c2c1F` [22 (trans)], in assay [4], the IC50 stood at 1.9 µg/mL (≈ 4.96 µM).
With `C#CC=C(c1ccc2nc(N)n(S(=O)(=O)C(C)C)c2c1)c1ccccc1F` [21 (trans)], the “IC50, RhV-14 (50 percent inhibition of plaque formation)” value in assay [4] was 0.078 µg/mL.
With `C#C/C=C(\c1cccc(C(F)(F)F)c1)c1ccc2nc(N)n(S(=O)(=O)C(C)C)c2c1` [14 (trans)], the IC50 in assay [4] came out at 0.331 µg/mL (≈ 0.764 µM).
For `C#CC=C(c1ccccc1)c1cc2c(cc1C)nc(N)n2S(=O)(=O)C(C)C` [23 (trans)], the half-maximal inhibitory concentration (IC50) in assay [4] is 3.9 µg/mL (≈ 10.3 µM).
In the case of `C#C/C=C(\c1ccccc1)c1ccc2nc(N)n(-c3ccc(OC)cc3)c2c1` [9 (trans)], in assay [1], the IC50 was 0.11 µg/mL (≈ 0.301 µM).
As for `C#C/C=C(\c1ccc(SC)cc1)c1ccc2nc(N)n(S(=O)(=O)C(C)C)c2c1` [4 (trans)], the 50% inhibitory concentration (IC50) in assay [1] worked out at 0.5 µg/mL (≈ 1.21 µM).
Consider `CC(C)S(=O)(=O)n1c(N)nc2ccc(/C(=C\C#C[Si](C)(C)C)c3ccc(F)cc3)cc21` [1A (cis)], for which the IC50 in assay [4] is 3.9 µg/mL (≈ 8.56 µM).
As for `C#CC=C(c1cccc(Cl)c1)c1ccc2nc(N)n(S(=O)(=O)C(C)C)c2c1` [27 (trans)], the half-maximal inhibitory concentration (IC50) turned out to be 0.123 µg/mL (≈ 0.308 µM) in assay [3], 0.253 µg/mL (≈ 0.633 µM) in assay [4], 0.185 µg/mL (≈ 0.463 µM) in assay [5] and 0.129 µg/mL (≈ 0.323 µM) in assay [6].
Turning to `C#C/C=C(\c1ccccc1)c1ccc2ncn(S(=O)(=O)C(C)C)c2c1` [12 (trans)], the half-maximal inhibitory concentration (IC50) in assay [1] was 19.2 µg/mL (≈ 54.8 µM).
Take `C#CC=C(c1ccc(C)cc1)c1ccc2nc(N)n(S(=O)(=O)C(C)C)c2c1` [19 (trans)]: the IC50 in assay [4] turned out to be 0.078 µg/mL (≈ 0.206 µM).
With `C#CC=C(c1ccc(F)c(F)c1)c1ccc2nc(NS(C)(=O)=O)n(S(=O)(=O)C(C)C)c2c1` [18 (trans)], in assay [4], the IC50 was 1.88 µg/mL (≈ 3.92 µM).
For `C#CC=C(c1ccc(S(C)(=O)=O)cc1)c1ccc2nc(N)n(S(=O)(=O)C(C)C)c2c1` [31 (trans)], in assay [1], the half-maximal inhibitory concentration (IC50) is 0.05 µg/mL (≈ 0.113 µM).
Regarding `C#CC=C(c1ccc(OC)c(F)c1)c1ccc2nc(N)n(S(=O)(=O)C(C)C)c2c1` [25 (cis)], in assay [4], the “IC50, RhV-14 (50 percent inhibition of plaque formation)” value was determined as 0.428 µg/mL.
Turning to `C#C/C=C(/c1ccccc1)c1ccc2nc(N)n(-c3ccc(OC)cc3)c2c1` [9 (cis)], the IC50 in assay [1] came out at 0.52 µg/mL (≈ 1.42 µM).

Source of the values: US5693661A (priority 1995, dated 1997).
